Results reported in PubChem BioAssay (NCI).
Values joined by “and” are separate entries in the source; they are usually repeats but may differ in a detail not shown here. Identical values can stand only once.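 Growth conditions: 96-well plates. Treatment: test compound, 48 hours, 5 concentrations. Analysis: linear interpolation between bracketing concentrations; unreached endpoints set to highest concentration. At the GI50, growth is halved. TGI: concentration producing complete growth inhibition.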

Key:
Assay in all cases: NCI anticancer screen, dose series, 48 h
NCI-H226 lung = system: NCI-H226 lung
786-0 renal = system: 786-0 renal
UACC-62 melanoma = system: UACC-62 melanoma
COLO 205 colon = system: COLO 205 colon
HOP-62 NSCLC = system: HOP-62 NSCLC
SNB-19 CNS = system: SNB-19 CNS
MDA-MB-435 = system: MDA-MB-435
SF-539 CNS = system: SF-539 CNS
MALME-3M melanoma = system: MALME-3M melanoma
CCRF-CEM leukemia = system: CCRF-CEM leukemia

Compound	GI50 (NCI-H226 lung)	TGI (NCI-H226 lung) [µM]	GI50 (786-0 renal)	TGI (786-0 renal) [µM]	GI50 (UACC-62 melanoma)	TGI (UACC-62 melanoma) [µM]	GI50 (COLO 205 colon)	TGI (COLO 205 colon) [µM]	GI50 (HOP-62 NSCLC)	TGI (HOP-62 NSCLC) [µM]	GI50 (SNB-19 CNS)	TGI (SNB-19 CNS) [µM]	GI50 (MDA-MB-435)	TGI (MDA-MB-435) [µM]	GI50 (SF-539 CNS)	TGI (SF-539 CNS)	GI50 (MALME-3M melanoma)	TGI (MALME-3M melanoma) [µM]	GI50 (CCRF-CEM leukemia)	TGI (CCRF-CEM leukemia) [µM]
CCC(=C/[C@H](C)C/C=C/C(C)=C/[C@@H](C)C(=O)[C@@H](C)[C@H](O)[C@@H](C)CC)/C=C/[C@H]1OC(=O)C=C[C@@H]1C	< 0.01 µM	0.554	< 0.01 µM	< 0.0219	< 0.01 µM	0.276	< 0.01 µM	0.345	< 0.01 µM	1.01	< 0.01 µM	2.12	< 0.01 µM	< 0.0184	< 0.01 µM	< 0.01 µM	< 0.01 µM	0.175	< 0.01 µM	2.66
O=C1NC(=NC(CO)Cc2ccccc2)S/C1=C\c1ccc2ncccc2c1 (stereo not drawn)	> 25 µM and 5.55 µM	> 25	> 25 µM and 6.96 µM	> 25	14.6 µM and 5.27 µM	> 25	9.23 µM and 1.86 µM	> 25	> 23.4 µM and 6.05 µM	> 25	> 25 µM and 4.34 µM	> 25	6.21 µM and 2.54 µM	> 25	11.9 µM and 2.73 µM	> 25 µM and 10.1 µM	12 µM and 6.19 µM	> 25	10.6 µM and 4.89 µM	> 25
CN1CC[C@@H](NC(=O)Nc2ccc(C#N)cc2)C[C@@H]1c1nc2ccccc2[nH]1	> 100 µM	> 100	> 100 µM	> 100	98.8 µM	> 100	> 80.6 µM	> 100	> 100 µM	> 100	> 100 µM	> 100	> 100 µM	> 100	> 100 µM	> 100 µM	> 100 µM	> 100	97.4 µM	> 100
CCCCCCCCCCCCC(O)c1ccc(C#CCCCCCCCCCO)o1 (stereo not drawn)	21.2 µM	37.9	18.9 µM	34.4	19.7 µM	40.3	> 100 µM	> 100	20.1 µM	35.5	31.7 µM	83.1	18.9 µM	34.3	21.1 µM	36.8 µM			23.2 µM	51.4
CN(C)CC1CC/C(=C\c2ccc(O)cc2)C1=O (stereo not drawn)		25.6		4.91		15.5		3.77		33.6		31.3		10.8		17.1 µM		6.62		3.53
CN(C)c1cc(NN=C(c2ccc(O)cc2)c2ccc(O)cc2)c([N+](=O)[O-])cc1[N+](=O)[O-]	13.1 µM	32.3	10.9 µM	25.1	3.41 µM	14.4	8.52 µM	24.7	10.5 µM	26.1	9.4 µM	22.2	3.02 µM	14.3	11.8 µM	24.1 µM	13.7 µM	28	2.58 µM	17.9
